Measured values as given in patent US12495798B2, “Nicotinamide compound and herbicidal composition comprising compound” (KOREA RESEARCH INSTITUTE OF CHEMICAL TECHNOLOGY, priority 2019, dated 2025).

What was measured:
Format in all cases: in vivo
sorghum [1] = experiment: Herbicidal activity test against upland field weeds (foliar treatment test); design: key to Foliar treatment herbicidal activity, Sorghum: 0 (no control); 100 (complete control); conditions: 50 g ai/ha, scale 0-100
Method in brief: (§1)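 Weeds were raised from seed or rootstocks in horticultural soil in a greenhouse (30±5° C., 14/10 h light/dark), then foliage was hand-sprayed with compound at 50 or 75 g a.i./ha in 50% acetone with 0.1% Tween-20. Control was scored visually 0–100 against untreated plants after 14 days, or 21 if needed.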

barnyard grass [2] = experiment: as above; design: key to Foliar treatment herbicidal activity, barnyard grass: 0 (no control); 100 (complete control); conditions: 50 g ai/ha, scale 0-100
Method in brief: as §1

quack grass [3] = experiment: as above; design: key to Foliar treatment herbicidal activity, quack grass: 0 (no control); 100 (complete control); conditions: 50 g ai/ha, scale 0-100
Method in brief: as §1

crabgrass [4] = experiment: as above; design: key to Foliar treatment herbicidal activity, Crabgrass: 0 (no control); 100 (complete control); conditions: 50 g ai/ha, scale 0-100
Method in brief: as §1

fall panicum [5] = experiment: as above; design: key to Foliar treatment herbicidal activity, Fall panicum: 0 (no control); 100 (complete control); conditions: 50 g ai/ha, scale 0-100
Method in brief: as §1

black nightshade [6] = experiment: as above; conditions: Solanum nigrum, 50 g ai/ha, scale 0-100
Method in brief: as §1

indian jointvetch [7] = experiment: as above; design: key to Foliar treatment herbicidal activity, Indian jointvetch: 0 (no control); 100 (complete control); conditions: 50 g ai/ha, scale 0-100
Method in brief: as §1

velvetleaf [8] = experiment: as above; design: key to Foliar treatment herbicidal activity, velvet leaf: 0 (no control); 100 (complete control); conditions: 50 g ai/ha
Method in brief: as §1

cocklebur [9] = experiment: as above; design: key to Foliar treatment herbicidal activity, Cocklebur: 0 (no control); 100 (complete control); conditions: 50 g ai/ha, scale 0-100
Method in brief: as §1

bindweed [10] = experiment: as above; design: key to Foliar treatment herbicidal activity, Bindweed: 0 (no control); 100 (complete control); conditions: 50 g ai/ha, scale 0-100
Method in brief: as §1

sorghum [11] = experiment: Herbicidal activity test against upland field weeds (soil treatment test); design: key to Soil treatment herbicidal activity, Sorghum: 0 (no control); 100 (complete control); conditions: 50 g ai/ha, scale 0 (no control) to 100 (complete control)
Method in brief: (§2)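 Pre-emergence test: seeds or rootstocks were sown in fertilized sandy loam, and the next day the soil surface was sprayed with compound at 50 or 75 g a.i./ha in 50% acetone/0.1% Tween-20. Plants were grown in a greenhouse (30±5 °C, 14/10 h light/dark), then visually scored 0–100 against untreated at 14 d (21 d if needed).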

barnyard grass [12] = experiment: as above; design: key to Soil treatment herbicidal activity, barnyard grass: 0 (no control); 100 (complete control); conditions: 50 g ai/ha, scale 0 (no control) to 100 (complete control)
Method in brief: as §2

quack grass [13] = experiment: as above; design: key to Soil treatment herbicidal activity, quack grass: 0 (no control); 100 (complete control); conditions: 50 g ai/ha, scale 0 (no control) to 100 (complete control)
Method in brief: as §2

crabgrass [14] = experiment: as above; design: key to Soil treatment herbicidal activity, Crabgrass: 0 (no control); 100 (complete control); conditions: 50 g ai/ha, scale 0 (no control) to 100 (complete control)
Method in brief: as §2

fall panicum [15] = experiment: as above; design: key to Soil treatment herbicidal activity, Fall panicum: 0 (no control); 100 (complete control); conditions: 50 g ai/ha, scale 0 (no control) to 100 (complete control)
Method in brief: as §2

black nightshade [16] = experiment: as above; design: key to Soil treatment herbicidal activity, black nightshade: 0 (no control); 100 (complete control); conditions: 50 g ai/ha, scale 0 (no control) to 100 (complete control)
Method in brief: as §2

indian jointvetch [17] = experiment: as above; design: key to Soil treatment herbicidal activity, Indian jointvetch: 0 (no control); 100 (complete control); conditions: 50 g ai/ha, scale 0 (no control) to 100 (complete control)
Method in brief: as §2

velvetleaf [18] = experiment: as above; design: key to Soil treatment herbicidal activity, velvet leaf: 0 (no control); 100 (complete control); conditions: 50 g ai/ha, scale 0 (no control) to 100 (complete control)
Method in brief: as §2

cocklebur [19] = experiment: as above; design: key to Soil treatment herbicidal activity, Cocklebur: 0 (no control); 100 (complete control); conditions: 50 g ai/ha, scale 0 (no control) to 100 (complete control)
Method in brief: as §2

bindweed [20] = experiment: as above; design: key to Soil treatment herbicidal activity, Bindweed: 0 (no control); 100 (complete control); conditions: 50 g ai/ha, scale 0 (no control) to 100 (complete control)
Method in brief: as §2

C#CCN(Cc1nnn(C)n1)c1nc(C(F)(F)F)ccc1C(=O)Nc1nnnn1C [Compound No. 2-28, N-(1-methyl-1H-tetrazol-5-yl)-2-(((2-methyl-2H-tetrazol-5-yl)methyl)(prop-2-yn-1-yl)amino)-6-(trifluoromethyl)nicotinamide]
30%: pest or weed control at 50 g/ha (crabgrass [4]; Digitaria sanguinalis)
100: Soil treatment herbicidal activity, black nightshade (black nightshade [16]) | Soil treatment herbicidal activity, velvet leaf (velvetleaf [18])
80%: pest or weed control at 50 g/ha (cocklebur [9]; Xanthium strumarium)
70%: pest or weed control at 50 g/ha (barnyard grass [2]; Echinochloa crus-galli) | pest or weed control at 50 g/ha (barnyard grass [12]; Echinochloa crus-galli) | pest or weed control at 50 g/ha (fall panicum [15]; Panicum dichotomiflorum) | pest or weed control at 50 g/ha (indian jointvetch [17])
0: Foliar treatment herbicidal activity, Sorghum (sorghum [1]) | Foliar treatment herbicidal activity, quack grass (quack grass [3]) | Foliar treatment herbicidal activity, Fall panicum (fall panicum [5]) | Soil treatment herbicidal activity, Sorghum (sorghum [11]) | Soil treatment herbicidal activity, quack grass (quack grass [13]) | Soil treatment herbicidal activity, Cocklebur (cocklebur [19]) | Soil treatment herbicidal activity, Bindweed (bindweed [20])
90%: pest or weed control at 50 g/ha (black nightshade [6]) | pest or weed control at 50 g/ha (crabgrass [14]; Digitaria sanguinalis)
40%: pest or weed control at 50 g/ha (indian jointvetch [7]) | pest or weed control at 50 g/ha (velvetleaf [8]; Abutilon theophrasti, scale 0-100, read-out: Foliar treatment herbicidal activity, velvet leaf) | pest or weed control at 50 g/ha (bindweed [10])

Cn1nnc(CN(OCc2ccccc2)c2nc(C(F)(F)F)ccc2C(=O)Nc2nnnn2C)n1 [Compound No. 2-29, 2-((benzyloxy)((2-methyl-2H-tetrazol-5-yl)methyl)amino)-N-(1-methyl-1H-tetrazol-5-yl)-6-(trifluoromethyl)nicotinamide]
0: Foliar treatment herbicidal activity, Sorghum (sorghum [1]) | Foliar treatment herbicidal activity, barnyard grass (barnyard grass [2]) | Foliar treatment herbicidal activity, quack grass (quack grass [3]) | Foliar treatment herbicidal activity, Crabgrass (crabgrass [4]) | Foliar treatment herbicidal activity, Fall panicum (fall panicum [5]) | Foliar treatment herbicidal activity, Indian jointvetch (indian jointvetch [7]) | Foliar treatment herbicidal activity, velvet leaf (velvetleaf [8]; scale 0-100) | Foliar treatment herbicidal activity, Cocklebur (cocklebur [9]) | Foliar treatment herbicidal activity, Bindweed (bindweed [10]) | Soil treatment herbicidal activity, Sorghum (sorghum [11]) | Soil treatment herbicidal activity, barnyard grass (barnyard grass [12]) | Soil treatment herbicidal activity, quack grass (quack grass [13]) | Soil treatment herbicidal activity, Crabgrass (crabgrass [14]) | Soil treatment herbicidal activity, Fall panicum (fall panicum [15]) | Soil treatment herbicidal activity, Indian jointvetch (indian jointvetch [17]) | Soil treatment herbicidal activity, velvet leaf (velvetleaf [18]) | Soil treatment herbicidal activity, Cocklebur (cocklebur [19]) | Soil treatment herbicidal activity, Bindweed (bindweed [20])
20%: pest or weed control at 50 g/ha (black nightshade [6]) | pest or weed control at 50 g/ha (black nightshade [16]; Solanum nigrum)
